# Where “and” joins values, the source holds several entries; their conditions need not be identical. Identical values can stand only once.
# What was measured:
# Assay in all cases: ≥ marks a high value that may be exact or a test limit, other limits are often not marked, values filed in µg/mL are converted to µM
# [1] = tested on: Bacillus subtilis ATCC 9372
# [2] = tested on: Burkholderia thailandensis
# [3] = tested on: Bacillus anthracis Sterne 34F2
# Escherichia coli B = tested on: Escherichia coli B
# Staphylococcus aureus = tested on: Staphylococcus aureus
# Bacillus subtilis 168 = tested on: Bacillus subtilis 168
# Pseudomonas aeruginosa = tested on: Pseudomonas aeruginosa
# [4] = tested on: Micrococcus luteus ATCC 10240
# Escherichia coli BL21AI = tested on: Escherichia coli BL21AI
# [5] = tested on: Staphylococcus aureus ATCC 2592
# Bacillus cereus = tested on: Bacillus cereus
# Shigella dysenteriae = tested on: Shigella dysenteriae
# [6] = tested on: Escherichia coli ATCC 25922
# [7] = tested on: Candida albicans ATCC 2002
# [8] = tested on: Mycobacterium tuberculosis H37Rv
# Salmonella sp. = tested on: Salmonella sp.
# [9] = tested on: Salmonella enterica subsp. enterica serovar Enteritidis
# [10] = tested on: Staphylococcus aureus ATCC 43300
# [11] = tested on: Staphylococcus aureus ATCC 29213
# Yersinia enterocolitica = tested on: Yersinia enterocolitica
# Escherichia coli = tested on: Escherichia coli
# [12] = tested on: Streptococcus mutans UA159
# [13] = tested on: Streptococcus sanguinis NY101
# [14] = tested on: Streptococcus gordonii Challis DL1
# [15] = tested on: Streptococcus mitis ATCC 903
# [16] = tested on: Pseudomonas aeruginosa PAK
# Candida albicans MDM8 = tested on: Candida albicans MDM8
# Escherichia coli SBS 363 = tested on: Escherichia coli SBS 363
# Micrococcus luteus A270 = tested on: Micrococcus luteus A270
# [17] = tested on: Staphylococcus aureus SAP 0017
smiles,measurement,setting,value
CC[C@H](C)[C@H](NC(=O)CNC(=O)[C@H](CO)NC(=O)[C@H](CC(C)C)NC(=O)[C@@H](NC(=O)[C@H](CCCN=C(N)N)NC(=O)CNC(=O)[C@@H](NC(=O)[C@H](CC(C)C)NC(=O)[C@@H]1CCCN1C(=O)[C@H](CC(C)C)NC(=O)[C@@H](N)Cc1ccccc1)[C@@H](C)CC)C(C)C)C(=O)N[C@@H](CC(C)C)C(=O)O [FLPLIGRVLSGIL],MIC,[1],≥ 100 µM
same,MIC,[2],≥ 50 µM
same,MIC,[3],≥ 100 µM
CC[C@H](C)[C@H](NC(=O)[C@H](CC(C)C)NC(=O)[C@H](Cc1cnc[nH]1)NC(=O)CNC(=O)[C@@H]1CCCN1C(=O)[C@@H](NC(=O)[C@H](CCCCN)NC(=O)[C@H](CO)NC(=O)[C@H](Cc1c[nH]c2ccccc12)NC(=O)[C@H](CCSC)NC(=O)CN)[C@@H](C)CC)C(=O)N[C@@H](CCCN=C(N)N)C(N)=O [GMWSKIPGHLIR],MIC,Escherichia coli B,25 µM
same,MIC,Staphylococcus aureus,> 100 µM
same,MIC,Bacillus subtilis 168,≥ 100 µM
same,MIC,Pseudomonas aeruginosa,> 100 µM
CC[C@H](C)[C@H](NC(=O)[C@H](Cc1ccc(O)cc1)NC(=O)[C@@H](NC(=O)[C@@H]1CCCN1C(=O)[C@H](CCCN=C(N)N)NC(=O)[C@H](CC(N)=O)NC(=O)[C@H](CC(N)=O)NC(=O)CN)C(C)C)C(=O)N1CCC[C@H]1C(=O)N[C@@H](CCC(N)=O)C(=O)N1CCC[C@H]1C(=O)N[C@@H](CCCN=C(N)N)C(=O)N1CCC[C@H]1C(=O)N1CCC[C@H]1C(=O)N[C@@H](Cc1cnc[nH]1)C(=O)N1CCC[C@H]1C(=O)N[C@@H](C)C(=O)N[C@@H](CC(C)C)C(N)=O [GNNRPVYIPQPRPPHPAL],MIC,[4],≥ 61.8 µM
same,MIC,Escherichia coli BL21AI,≥ 61.8 µM
CC[C@H](C)[C@H](NC(=O)[C@H](CCCCN)NC(=O)[C@H](C)NC(=O)CNC(=O)[C@@H](NC(=O)[C@H](CCCCN)NC(=O)[C@@H](NC(=O)[C@H](CCCCN)NC(=O)[C@H](C)NC(=O)CNC(=O)[C@@H](NC(=O)[C@H](CCCCN)NC(=O)[C@@H](NC(=O)[C@H](CCCCN)NC(=O)[C@H](C)NC(=O)CNC(=O)[C@@H](NC(=O)[C@@H](N)CCCCN)[C@@H](C)CC)[C@@H](C)CC)[C@@H](C)CC)[C@@H](C)CC)[C@@H](C)CC)C(=O)O [KIGAKIKIGAKIKIGAKI],MIC,[1],31 µM
same,MIC,[2],≥ 50 µM
same,MIC,[3],≥ 100 µM
CC[C@H](C)[C@H](NC(=O)[C@H](Cc1ccc(O)cc1)NC(=O)CNC(=O)[C@@H](NC(=O)[C@@H](NC(=O)CNC(=O)[C@@H](NC(=O)[C@H](C)NC(=O)[C@H](C)NC(=O)CNC(=O)CNC(=O)[C@@H](N)CC(C)C)[C@@H](C)O)C(C)C)[C@@H](C)CC)C(=O)N[C@@H](CO)C(=O)N[C@@H](CC(N)=O)C(=O)N[C@@H](CCC(N)=O)C(=O)N[C@H](C(=O)N[C@@H](CS)C(=O)N1CCC[C@H]1C(=O)N[C@H](C(=O)N[C@H](C(=O)N[C@@H](C)C(=O)N[C@@H](CS)C(=O)N[C@H](C(=O)N[C@@H](CCCN=C(N)N)C(=O)N[C@@H](C)C(=O)N[C@@H](CS)C(=O)O)[C@@H](C)O)[C@@H](C)O)[C@@H](C)O)[C@@H](C)O [LGGAATGVIGYISNQTCPTTACTRAC],MIC,[1],≥ 100 µM
same,MIC,[2],≥ 50 µM
same,MIC,[3],≥ 100 µM
CSCC[C@@H]1NC(=O)[C@H](CC(C)C)NC(=O)[C@H](C)NC(=O)[C@H](CCCN=C(N)N)NC(=O)[C@H](CC(N)=O)NC(=O)[C@@H](NC(=O)[C@H](CCCCN)NC(=O)[C@H](CC(N)=O)NC(=O)[C@H](CCCN=C(N)N)NC(=O)[C@@H]2CCCN2C(=O)[C@H](CCSC)NC(=O)[C@H](CO)NC(=O)[C@H](CC(C)C)NC(=O)[C@H](C)NC(=O)[C@@H](N)CC(N)=O)CSSC[C@@H](C(=O)N[C@@H](Cc2ccccc2)C(=O)NCC(=O)O)NC1=O [NALSMPRNKCNRALMCFG],MIC,[5],6.17 µM
same,MIC,Bacillus cereus,6.17 µM
same,MIC,Shigella dysenteriae,3.08 µM
same,MIC,[6],24.7 µM
same,MIC,[7],3.08 µM
same,MIC,Pseudomonas aeruginosa,6.17 µM
CC[C@H](C)[C@H](NC(=O)[C@H](CC(N)=O)NC(=O)[C@H](C)NC(=O)[C@H](CCCN=C(N)N)NC(=O)[C@H](Cc1ccccc1)NC(=O)[C@H](CCC(=O)O)NC(=O)[C@H](Cc1ccccc1)NC(=O)[C@H](Cc1ccc(O)cc1)NC(=O)[C@H](Cc1ccccc1)NC(=O)CNC(=O)[C@@H]1CCCN1C(=O)[C@@H]1CCCN1C(=O)[C@@H](N)CCCN=C(N)N)C(=O)N[C@H](C(=O)N1CCC[C@H]1C(=O)N[C@@H](Cc1ccc(O)cc1)C(=O)N[C@@H](CC(C)C)C(=O)NCC(=O)N[C@@H](CCCN=C(N)N)C(=O)N[C@@H](CCCN=C(N)N)C(=O)O)[C@@H](C)CC [RPPGFYFEFRANIIPYLGRR],MIC,[8],≥ 60.7 µM
CC[C@H](C)[C@H](NC(=O)[C@H](CCC(N)=O)NC(=O)[C@@H](N)CCCN=C(N)N)C(=O)N[C@@H](CCCN=C(N)N)C(=O)N[C@@H](CCCN=C(N)N)C(=O)N[C@H](C(=O)N[C@H](C(=O)N[C@@H](CCC(N)=O)C(=O)N[C@@H](CCCN=C(N)N)C(N)=O)[C@@H](C)CC)[C@@H](C)CC [RQIRRIIQR],MIC,[6],> 40.4 µM
same,MIC,Salmonella sp.,≥ 40.4 µM
same,MIC,[9],≥ 40.4 µM
same,MIC,[10],> 40.4 µM
same,MIC,[11],> 40.4 µM
same,MIC,Yersinia enterocolitica,≥ 40.4 µM
same,MIC,Escherichia coli,> 40.4 µM
CC[C@H](C)[C@H](NC(=O)[C@H](CCC(N)=O)NC(=O)[C@@H](N)CCCN=C(N)N)C(=O)N[C@@H](CCCN=C(N)N)C(=O)N[C@@H](CCCN=C(N)N)C(=O)N[C@@H](Cc1c[nH]c2ccccc12)C(=O)N[C@@H](Cc1c[nH]c2ccccc12)C(=O)N[C@@H](CCSC)C(=O)N[C@@H](CCCN=C(N)N)C(N)=O [RQIRRWWMR],MIC,[6],> 36 µM
same,MIC,Salmonella sp.,≥ 36 µM
same,MIC,[9],≥ 36 µM
same,MIC,[10],> 36 µM
same,MIC,[11],> 36 µM
same,MIC,Yersinia enterocolitica,≥ 36 µM
same,MIC,Escherichia coli,> 36 µM
CC[C@H](C)[C@H](NC(=O)[C@H](Cc1ccccc1)NC(=O)[C@H](Cc1cnc[nH]1)NC(=O)[C@H](CCCCN)NC(=O)[C@@H](NC(=O)[C@H](Cc1ccccc1)NC(=O)[C@@H](NC(=O)[C@H](C)NC(=O)[C@H](CO)NC(=O)[C@H](Cc1cnc[nH]1)NC(=O)[C@H](CC(C)C)NC(=O)[C@H](CC(C)C)NC(=O)[C@H](Cc1cnc[nH]1)NC(=O)[C@H](Cc1cnc[nH]1)NC(=O)[C@H](CC(C)C)NC(=O)[C@H](CCCCN)NC(=O)[C@H](CCCCN)NC(=O)[C@H](CC(C)C)NC(=O)[C@H](CC(C)C)NC(=O)[C@H](CCCN=C(N)N)NC(=O)[C@H](CCCN=C(N)N)NC(=O)[C@H](Cc1c[nH]c2ccccc12)NC(=O)[C@@H](N)CCCN=C(N)N)[C@@H](C)O)[C@@H](C)CC)C(=O)N[C@@H](Cc1cnc[nH]1)C(=O)N[C@@H](CCCN=C(N)N)C(=O)N[C@@H](Cc1ccccc1)C(N)=O [RWRRLLKKLHHLLHSATFIKHFIHRF],MIC,Staphylococcus aureus,9.43 µM
same,MIC,[12],2.36 µM
same,MIC,[13],4.72 µM
same,MIC,[14],4.72 µM
same,MIC,[15],4.72 µM
same,MIC,[16],9.43 µM
CC[C@H](C)[C@H](NC(=O)[C@H](CC(C)C)NC(=O)[C@H](CO)NC(=O)[C@H](CC(C)C)NC(=O)[C@H](Cc1ccccc1)NC(=O)[C@@H](N)CO)C(=O)N[C@@H](CCCN=C(N)N)C(=O)N[C@@H](CCCCN)C(=O)N[C@@H](CC(C)C)C(=O)N[C@H](C(=O)N[C@H](C(N)=O)[C@@H](C)O)[C@@H](C)CC [SFLSLIRKLIT],MIC,Candida albicans MDM8,0.78 µM
same,MIC,Escherichia coli SBS 363,1.56 µM
same,MIC,Micrococcus luteus A270,0.78 µM
CC[C@H](C)[C@H](NC(=O)[C@H](C)NC(=O)[C@H](CCCN=C(N)N)NC(=O)[C@H](CC(C)C)NC(=O)[C@@H](NC(=O)[C@H](CCCCN)NC(=O)[C@H](CC(C)C)NC(=O)[C@H](CC(C)C)NC(=O)[C@H](Cc1c[nH]c2ccccc12)NC(=O)[C@H](CCCCN)NC(=O)[C@@H](NC(=O)[C@@H](N)C(C)C)[C@@H](C)CC)[C@@H](C)CC)C(N)=O [VIKWLLKILRAI],MIC,[17],1 µM and 2 µM

# — DBAASP
